From patent publication US20110065694A1 (priority 2009, published 2011)
Where two headings read alike, the source gives them in different places.

Molecular target: human histamine H3 receptor (Homo sapiens, UniProt Q9Y5N1)
Assay: H3 GTPγS assay (SPA method), histamine H3 in vitro assay
Format: biochemical
Description: Briefly, cells expressing the human histamine H3 receptor were homogenized in 15 mM Tris-HCl pH 7.5, 2 mM MgCl2, 0.3 mM EDTA, and 1 mM EGTA. […] Membranes were frozen in liquid nitrogen until use. On the day of the assay, membranes were thawed and diluted in assay buffer (20 mM HEPES pH 7.4, 100 mM NaCl, 10 μg/ml saponin, 1 mM MgCl2) to give 500 μg/ml and mixed (v/v) with GDP in assay buffer for a final GDP concentration of 10 μM and incubated on ice for at least […]. PVT-WGA beads (Amersham, RPNQ001) were diluted in assay buffer at 50 mg/mL and mixed with GTPγ[^35S] (Amersham, SJ1308) diluted in assay buffer to give ˜25,000 dpm/10 μL and mixed vol/vol just before the start of the reaction.
For antagonists testing, 10 μL of a reference agonist ([…]) instead of 10 μL buffer was added at a concentration corresponding to the EC80 (30 nM).
The compounds provided herein were tested in the histamine H3 in vitro assay. In one embodiment, the respective HCl salts of the compounds provided herein were prepared using standard chemical procedures and tested in the histamine H3 in vitro assay.

[1] = membranes of cells expressing human H3, GTPγ[35S] SPA, antagonist testing with reference agonist at EC80 (30 nM), in one embodiment HCl salts tested, read-out: Potency (functional potency as indicated by IC50)

Sequence of human histamine H3 receptor (Q9Y5N1 whole entry): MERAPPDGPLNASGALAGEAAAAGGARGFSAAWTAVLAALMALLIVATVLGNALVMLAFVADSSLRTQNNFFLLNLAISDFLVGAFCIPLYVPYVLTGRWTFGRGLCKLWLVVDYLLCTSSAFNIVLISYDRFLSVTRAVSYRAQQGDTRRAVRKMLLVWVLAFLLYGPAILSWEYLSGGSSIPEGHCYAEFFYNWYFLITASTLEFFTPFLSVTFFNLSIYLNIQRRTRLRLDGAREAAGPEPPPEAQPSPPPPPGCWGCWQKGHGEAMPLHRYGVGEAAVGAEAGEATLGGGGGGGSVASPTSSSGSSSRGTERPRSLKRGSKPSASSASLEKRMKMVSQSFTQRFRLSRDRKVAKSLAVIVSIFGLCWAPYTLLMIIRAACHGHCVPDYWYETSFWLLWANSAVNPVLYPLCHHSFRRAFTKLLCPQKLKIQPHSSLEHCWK

Row | Compound | IC50 [1] [nM] | IC50 [nM]
1 | c1coc(-c2ccc3c(c2)nc2n3C3CCC2CN(C2CCC2)C3)c1 (centres unmarked) [Compound 29, 3-cyclobutyl-8-(furan-2-yl)-2,3,4,5-tetrahydro-1H-1,5-ethanobenzo[4,5]imidazo[1,2-d][1,4]diazepine] | < 1000 | –
2 | c1cnc(-c2ccc3c(c2)nc2n3C3CCC2CN(C2CCC2)C3)cn1 (centres unmarked) [Compound 30, 3-cyclobutyl-8-(pyrazin-2-yl)-2,3,4,5-tetrahydro-1H-1,5-ethanobenzo[4,5]imidazo[1,2-d][1,4]diazepine] | < 100 | –
3 | NCc1ccc(-c2ccc3c(c2)nc2n3C3CCC2CN(C2CCC2)C3)cc1 (centres unmarked) [Compound 31, (4-(3-cyclobutyl-2,3,4,5-tetrahydro-1H-1,5-ethanobenzo[4,5]imidazo[1,2-d][1,4]diazepin-8-yl)phenyl)methanamine] | – | < 100
4 | Clc1ccc2c(c1)nc1n2C2CC(C1)N(C1CCC1)C2 (centres unmarked) [Compound 32, 8-chloro-3-cyclobutyl-2,3,4,5-tetrahydro-1H-1,4-methanobenzo[4,5]imidazo[1,2-d][1,4]diazepine] | > 1000 | –
5 | N#Cc1ccc(-c2ccc3c(c2)nc2n3C3CC(C2)N(C2CCC2)C3)cc1 (centres unmarked) [Compound 33, 4-(3-cyclobutyl-2,3,4,5-tetrahydro-1H-1,4-methanobenzo[4,5]imidazo[1,2-d][1,4]diazepin-8-yl)benzonitrile] | < 1000 | –
6 | c1cn2cc(-c3ccc4c(c3)nc3n4C4CC(C3)N(C3CCC3)C4)ccc2n1 (centres unmarked) [Compound 34, 3-cyclobutyl-8-(imidazo[1,2-a]pyridin-6-yl)-2,3,4,5-tetrahydro-1H-1,4-methanobenzo[4,5]imidazo[1,2-d][1,4]diazepine] | < 1000 | –
7 | Clc1ccc2c(c1)nc1n2CC2CC1CN2C1CCC1 (centres unmarked) [Compound 35, 8-chloro-3-cyclobutyl-2,3,4,5-tetrahydro-1H-2,5-methanobenzo[4,5]imidazo[1,2-d][1,4]diazepine] | < 1000 | –
8 | N#Cc1ccc(-c2ccc3c(c2)nc2n3CC3CC2CN3C2CCC2)cc1 (centres unmarked) [Compound 36, 4-(3-cyclobutyl-2,3,4,5-tetrahydro-1H-2,5-methanobenzo[4,5]imidazo[1,2-d][1,4]diazepin-8-yl)benzonitrile] | < 1000 | –
9 | c1cn2cc(-c3ccc4c(c3)nc3n4CC4CC3CN4C3CCC3)ccc2n1 (centres unmarked) [Compound 37, 3-cyclobutyl-8-(imidazo[1,2-a]pyridin-6-yl)-2,3,4,5-tetrahydro-1H-2,5-methanobenzo[4,5]imidazo[1,2-d][1,4]diazepine] | > 1000 | –
10 | c1ccc2c(c1)ncn2-c1ccc2c(c1)nc1n2CC2CC1CN2C1CCC1 (centres unmarked) [Compound 38, 8-(1H-benzo[d]imidazol-1-yl)-3-cyclobutyl-2,3,4,5-tetrahydro-1H-2,5-methanobenzo[4,5]imidazo[1,2-d][1,4]diazepine] | < 1000 | –
11 | c1cc2c(cc1CN1CCOCC1)nc1n2CC2CC1CN2C1CCC1 (centres unmarked) [Compound 39, 4-((3-cyclobutyl-2,3,4,5-tetrahydro-1H-2,5-methanobenzo[4,5]imidazo[1,2-d][1,7]diazepin-8-yl)methyl)morpholine] | > 1000 | –
12 | CC1Cc2nc3cc(Br)ccc3n2CCN1C1CCC1 (centres unmarked) [Compound 40, 8-bromo-3-cyclobutyl-4-methyl-2,3,4,5-tetrahydro-1H-benzo[4,5]imidazo[1,2-d][1,4]diazepine] | < 100 | –
13 | CC1Cc2nc3cc(-c4ccc(C#N)cc4)ccc3n2CCN1C1CCC1 (centres unmarked) [Compound 41, 4-(3-cyclobutyl-4-methyl-2,3,4,5-tetrahydro-1H-benzo[4,5]imidazo[1,2-d][1,4]diazepin-8-yl)benzonitrile] | < 10 | –
14 | CC1Cn2c(nc3cc(Br)ccc32)CCN1C1CCC1 (centres unmarked) [Compound 42, 8-bromo-3-cyclobutyl-2-methyl-2,3,4,5-tetrahydro-1H-benzo[4,5]imidazo[1,2-d][1,4]diazepine] | < 1000 | –
15 | CC1Cn2c(nc3cc(-c4ccc(C#N)cc4)ccc32)CCN1C1CCC1 (centres unmarked) [Compound 43, 4-(3-cyclobutyl-2-methyl-2,3,4,5-tetrahydro-1H-benzo[4,5]imidazo[1,2-d][1,4]diazepin-8-yl)benzonitrile] | < 100 | –
16 | c1cn2cc(-c3ccc4c(c3)nc3n4CCN4CCCC[C@H]4C3)ccc2n1 [Compound 49, (S)-11-(imidazo[1,2-a]pyridin-6-yl)-1,2,3,4,6,7,14,14a-octahydrobenzo[4,5]imidazo[1,2-d]pyrido[2,1-g][1,4]diazepine] | < 100 | –
17 | Brc1ccc2c(c1)nc1n2CCN(C2CCC2)C1 [Compound 52, 8-bromo-2-cyclobutyl-1,2,3,4-tetrahydrobenzo[4,5]imidazo[1,2-a]pyrazine] | > 1000 | –
18 | N#Cc1ccc(-c2ccc3c(c2)nc2n3CCN(C3CCC3)C2)cc1 [Compound 53, 4-(2-cyclobutyl-1,2,3,4-tetrahydrobenzo-[4,5]imidazo[1,2-a]pyrazin-8-yl)benzonitrile] | < 1000 | –

Row | Compound | IC50 [1] [nM] | IC50 [nM]
19 | c1cn2cc(-c3ccc4c(c3)nc3n4CCN(C4CCC4)C3)ccc2n1 [Compound 54, 2-cyclobutyl-8-(imidazo[1,2-a]pyridin-6-yl)-1,2,3,4-tetrahydrobenzo[4,5]imidazo[1,2-a]pyrazine] | < 1000 | –
20 | c1ccc2c(c1)ncn2-c1ccc2c(c1)nc1n2CCN(C2CCC2)C1 [Compound 55, 8-(1H-benzo[d]imidazol-1-yl)-2-cyclobutyl-1,2,3,4-tetrahydrobenzo[4,5]imidazo[1,2-a]pyrazine] | < 1000 | –
21 | c1cc2c(cc1CN1CCOCC1)nc1n2CCN(C2CCC2)C1 [Compound 56, 4-((2-cyclobutyl-1,2,3,4-tetrahydrobenzo-[4,5]imidazo[1,2-a]pyrazin-8-yl)methyl)morpholine] | < 10 | –
22 | Clc1ccc2c(c1)nc1n2CCCN(C2CCC2)CC1 [Compound 57, 10-chloro-3-cyclobutyl-1,2,3,4,5,6-hexahydrobenzo[4,5]imidazo[1,2-a][1,5]diazocine] | < 100 | –
23 | N#Cc1ccc(-c2ccc3c(c2)nc2n3CCCN(C3CCC3)CC2)cc1 [Compound 58, 4-(3-cyclobutyl-1,2,3,4,5,6-hexahydrobenzo[4,5]imidazo[1,2-a][1,5]diazocin-10-yl)benzonitrile] | < 10 | –
24 | c1cn2cc(-c3ccc4c(c3)nc3n4CC4CCC(C3)N4C3CCC3)ccc2n1 (centres unmarked) [Compound 60, 13-cyclobutyl-3-(imidazo[1,2-a]pyridin-6-yl)-6,7,8,9,10,11-hexahydro-7,10-epiminobenzo[4,5]imidazo[1,2-a]azocine] | < 10 | –
25 | c1ccc2c(c1)ncn2-c1ccc2c(c1)nc1n2CC2CCC(C1)N2C1CCC1 (centres unmarked) [Compound 61, 3-(1H-benzo[d]imidazol-1-yl)-13-cyclobutyl-6,7,8,9,10,11-hexahydro-7,10-epiminobenzo[4,5]imidazo[1,2-a]azocine] | < 100 | –
26 | c1cc2c(cc1CN1CCOCC1)nc1n2CC2CCC(C1)N2C1CCC1 (centres unmarked) [Compound 62, 4-((13-cyclobutyl-6,7,8,9,10,11-hexahydro-7,10-epiminobenzo[4,5]imidazo[1,2-a]azocin-3-yl)methyl)morpholine] | < 100 | –
27 | c1ccc2c(c1)CCN(Cc1ccc3c(c1)nc1n3CCN3CCCC[C@H]3C1)C2 [Compound 65, (S)-11-((3,4-dihydroisoquinolin-2(1H)-yl)methyl)-1,2,3,4,6,7,14,14a-octahydrobenzo[4,5]imidazo[1,2-d]pyrido[2,1-g][1,4]diazepine] | < 100 | –
28 | N#Cc1ccc(-c2ccc3c(c2)nc2n3CCCN3CCCCC3C2)cc1 (centres unmarked) [Compound 66, 4-(2,3,4,6,7,8,15,15a-octahydro-1H-benzo[4,5]imidazo[1,2-a]pyrido[2,1-d][1,5]diazocin-12-yl)benzonitrile] | < 10 | –
29 | c1cn2cc(-c3ccc4c(c3)nc3n4CCCN4CCCCC4C3)ccc2n1 (centres unmarked) [Compound 67, 12-(imidazo[1,2-a]pyridin-6-yl)-2,3,4,6,7,8,15,15a-octahydro-1H-benzo[4,5]imidazo[1,2-a]pyrido[2,1-d][1,5]diazocine] | < 10 | –
30 | c1cc2c(cc1CN1CCOCC1)nc1n2CCCN2CCCCC2C1 (centres unmarked) [Compound 68, 4-((2,3,4,6,7,8,15,15a-octahydro-1H-benzo[4,5]imidazo[1,2-a]pyrido[2,1-d][1,5]diazocin-12-yl)methyl)morpholine] | < 100 | –
31 | c1ccc2c(c1)CCN(Cc1ccc3c(c1)nc1n3CCCN3CCCCC3C1)C2 (centres unmarked) [Compound 69] | < 100 | –
32 | Brc1ccc2c(c1)nc1n2CCN2CCCC2C1 (centres unmarked) [Compound 72, 10-bromo-2,3,5,6,13,13a-hexahydro-1H-benzo[4,5]imidazo[1,2-d]pyrrolo[2,1-g][1,4]diazepine] | – | < 100
33 | N#Cc1ccc(-c2ccc3c(c2)nc2n3CCN3CCCC3C2)cc1 (centres unmarked) [Compound 73, 4-(2,3,5,6,13,13a-hexahydro-1H-benzo[4,5]imidazo[1,2-d]pyrrolo[2,1-g][1,4]diazepin-10-yl)benzonitrile] | < 10 | –
34 | c1cn2cc(-c3ccc4c(c3)nc3n4CCN4CCCC4C3)ccc2n1 (centres unmarked) [Compound 74, 10-(imidazo[1,2-a]pyridin-6-yl)-2,3,5,6,13,13a-hexahydro-1H-benzo[4,5]imidazo[1,2-d]pyrrolo[2,1-g][1,4]diazepine] | < 10 | –
35 | c1cc2c(cc1CN1CCOCC1)nc1n2CCN2CCCC2C1 (centres unmarked) [Compound 75, 4-((2,3,5,6,13,13a-hexahydro-1H-benzo[4,5]imidazo[,2-d]pyrrolo[2,1-g][1,4]diazepin-10-yl)methyl)morpholine] | < 10 | –
